Assay results: ChEMBL document CHEMBL3576781, “Substituted Bis-THF Protease Inhibitors with Improved Potency against Highly Resistant Mature HIV-1 Protease PR20” (J Med Chem, 2015)
Activity calls are given as the source filed them. No cut-off for these calls is given here.

Experiments:
Protease = Protease (Human immunodeficiency virus 1, UniProt Q9YQ12); assay: Inhibition of wild type HIV1 protease
[1] = system: Human immunodeficiency virus 1; assay: Antiviral activity against HIV1 by cell based MTT assay; assay type: functional, organism-based
[2] = Inhibition of HIV1 protease PR20 mutant expressed in Escherichia coli BL21 (DE3) incubated for 5 mins followed by Abz-Thr-Ile-Nle-p-nitro-Phe-GlnArg-NH2 substrate addition and measured over 5 mins by microplate reader based assay; design: species or system Human immunodeficiency virus 1
[3] = system: Human immunodeficiency virus 1; assay: Inhibition of N-terminal autoprocessing of transframe region-comprising HIV1 protease PR20 mutant precursor up to 100 uM by SDS-PAGE method
[4] = Binding affinity to HIV1 protease PR20 mutant expressed in Escherichia coli BL21 (DE3) assessed as ligand dissociation constant by ITC method; design: species or system Human immunodeficiency virus 1
[5] = system: Human immunodeficiency virus 1; assay: Antiviral activity against HIV1 LAI infected in human MT2 cells by MTT assay; assay type: functional, organism-based; conditions: Human immunodeficiency virus 1, LAI

Protease, sequence (Q9YQ12 whole entry): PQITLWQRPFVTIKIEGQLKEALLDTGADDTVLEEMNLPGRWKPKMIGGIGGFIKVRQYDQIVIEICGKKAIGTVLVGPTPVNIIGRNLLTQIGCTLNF

SMILES	Ki (Protease)	IC50 [1]	Ki [2]	inhibition [3]	Kd [4]	EC50 [5]
COc1ccc(S(=O)(=O)N(CC(C)C)C[C@@H](O)[C@H](Cc2ccccc2)NC(=O)O[C@H]2CO[C@H]3OC[C@H](OC)[C@H]32)cc1	0.0029 nM	2.4 nM	4.3 nM	inactive	–	–
CC(C)CN(C[C@@H](O)[C@H](Cc1ccccc1)NC(=O)O[C@H]1CO[C@H]2OCC[C@H]21)S(=O)(=O)c1ccc(N)cc1	–	–	–	–	41 nM	–
CC(C)CN(C[C@@H](O)[C@H](Cc1ccccc1)NC(=O)O[C@H]1CO[C@H]2OCC(F)(F)[C@H]21)S(=O)(=O)c1ccc(N)cc1	0.0058 nM	–	1.7 nM	inactive	–	3 nM
